{"source": "patent US20060117411A1", "about": "“Enhancing plant pathogen resistance via increasing BiP levels” (priority 1998, published 2006)", "key": {"BiP mRNA [1]": {"tested_on": "BiP mRNA", "experiment": "Treatment of Arabidopsis WT and saiI mutant, Northern blot of BiP", "type": "in vivo, Arabidopsis thaliana", "conditions": "Arabidopsis saiI mutant vs wild-type, SA 5 mM", "description": "WT and saiI mutants of the same ecotype were treated with cell wall-degrading enzymes and incubated for 6 hours. As a control (con), leaves were mock-infected with H2O. Total RNA was extracted and Northern blot analysis was performed for BiP and a hevein-like protein (Hel) which is known to be induced by CDEs of Erwinia carotovora (Vidal et al, in preparation).\nWT and saiI mutants of the same ecotype were sprayed with SA (5 mM) and incubated in the light. Total RNA was extracted and probed with the PR1 and BiP gene from Arabidopsis. The induction of PR1 in WT Arabidopsis was detected 3 hours after SA-treatment and continued to increase until 8 hours (FIG. 10). […] As in tobacco plants, BiP mRNA levels increase prior to PR1 transcripts in SA treated Arabidopsis plants (FIG. 10) and diminish after prolonged incubations (data not shown).\nPlants of Nicotiana tabacum cultivar Petit Havana (Maliga et al., 1973) were axenically grown in MS medium (Murashige and Skoog, 1962), 2% Sucrose in a temperature controlled room at 25° C. with a 16 h day/[…] regime and a light irradiance of 200 μE.m^−2.s^−1. Arabidopsis thaliana Nössen WT and saiI plants (Shah et al., 1997) were grown under the same conditions.\nProtoplasts RNAs were extracted as described by Jones et al., (1985). […]"}, "[2]": {"tested_on": "β-1,3-glucanase gene expression", "experiment": "Leaf treatment of tobacco plants, Northern blot of β-1,3-glucanase transcripts in local and systemic leaves", "type": "in vivo, Nicotiana tabacum", "conditions": "3 and 8 hours of incubation", "description": "We have shown that treatment of tobacco plants with cell wall-degrading enzymes (CDE) leads to the rapid induction of β-1,3-glucanase and other PR genes, both locally and systemically (Vidal et al, 1997). […] We used a commercial preparation of fungal CDEs instead of custom made Erwinia-derived hydrolases to increase reproducibility. One leaf from each tobacco plant was treated with CDEs and the induction of BiP gene expression was analysed in the treated (local) and untreated (systemic) leaves from the same plant. […] This induction was observed locally as well systemically with the same timing and intensity. β-1,3-glucanase transcript accumulation is detectable only after 4 hours of incubation and reaches its plateau after 8 hours as described previously (Vidal et al, 1997). Whereas BiP induction is transient, β-1,3-glucanase mRNA levels continue to be high after prolonged incubation times (24-48 hours). […] The signal involved in the systemic response of BiP gene expression must therefore be transported very rapidly from the local leaf to the distal leaves.\nEven though BiP induction occurs prior to β-1,3 glucanase induction, we cannot rule out that other, as yet unidentified defence related proteins are induced more rapidly and perhaps before BiP in our experimental system. […]"}, "[3]": {"tested_on": "α-amylase synthesis in tobacco protoplasts", "experiment": "Transient expression in tobacco protoplasts (pNL200), α-amylase activity", "type": "cell-based, Nicotiana tabacum", "conditions": "tunicamycin 20 μg/mL, 20 hr", "from_the_text": "We have established a model system based on the comparison of protein biosynthesis in the cytosol and on the rough ER using transient expression. A plasmid was constructed (pNL200, FIG. 12A) containing two genes, one encoding the secreted barley α-amylase (Rogers, 1985) and the other encoding the cytosolic marker β-glucuronidase (GUS; Jefferson et al., 1987). α-Amylase was used to measure secretory protein biosynthesis, and GUS was used to control for transfection efficiency and overall cell viability. We compared cells under normal culture conditions with cells subjected to ER stress by treatment with tunicamycin. […] Since α-amylase is not glycosylated, tunicamycin should not have a direct effect on this protein. The tunicamycin effect is protein-specific and not dependent on the promoter used. […]\nTobacco leaf protoplasts (from transformed or untransformed plants) were prepared, and electroporation experiments were performed as previously described (Denecke and Vitale, 1995), with minor modifications to the electroporation conditions. […] After 24 or 48 hr, the protoplasts were analysed by enzymatic assay or by protein gel blotting. […]\nα-Amylase activity was measured with a kit (Megazyme, Australia). […] The absorbance was measured at a wavelength of 405 nm, with a microtiter plate reader against a blank containing stop buffer alone. […]"}, "BiP mRNA [4]": {"tested_on": "BiP mRNA", "experiment": "Tunicamycin treatment of tobacco protoplasts, Northern blot of BiP", "type": "cell-based, Nicotiana tabacum", "conditions": "tunicamycin 20 μg/mL, 2.5 hrs", "description": "To compare the CDE- and UPR-mediated induction of BiP, we wanted to test if both stimuli are additive. […] This is not surprising as protoplasts are prepared with CDEs. These protoplasts were then treated with tunicanycin, to superimpose the UPR onto the CDE response. […] The additional ER stress could trap BiP in malfolded protein complexes, thus making it unavailable to promote PR protein synthesis on the rough ER.\nProtoplasts RNAs were extracted as described by Jones et al., (1985). Leaves were ground in frozen liquid nitrogen and transferred to NTES buffer (0.1 M NaCl, 10 mM Tris pH 7.5, 1 mM EDTA, 1% SDS). Protoplasts samples were frozen in liquid nitrogen and thawed in NTES buffer. RNA was extracted after adding an equal volume of phenol/chloroform. Ethanol precipitation was carried out after incubation at −20° C. for 16 hours. The pellet was resuspended and RNA was selectively precipitated with LiCl (2M LiCl) for 2 hours on ice. The pellet was washed with 70% ethanol and resuspended in diethyl pyrocarbonate-treated water. Gel blots of total RNA denatured in formamide and formaldehyde were prepared. RNA was blotted onto Hybond-N membrane (Amersham Corp), as described by the manufacturer. […]"}}}
{"molecule": "O=C(O)c1ccccc1O", "note": "[SA, Salicylic Acid]", "values": [{"measurement": "BiP mRNA levels in saiI mutants during SA-treatment", "setting": "BiP mRNA [1]", "value": "exactly the same induction pattern as in the wild-type plant"}]}
{"molecule": "tunicamycin", "values": [{"measurement": "expression of β-1,3-glucanase, local and systemic", "setting": "[2]", "value": "neither locally nor systemically induced"}, {"measurement": "total α-amylase activity in the cell suspension", "setting": "[3]", "value": "greatly reduced"}, {"measurement": "BiP induction on top of the CDE response in protoplasts", "setting": "BiP mRNA [4]", "value": "further induction"}]}
